Data taken from patent US9828339B2, “Biphenyl derivatives and methods for preparing same” (DONG-A ST CO., LTD, priority 2013, dated 2017).

What was measured:
[1] = tested on: rhythmic bladder contractions; assay: Rhythmic bladder contractions in rats (in vivo); set-up: species or system rat; conditions: 0.3 mpk, intravenous, female Sprague-Dawley rats; amplitude reduction of bladder contractions
Text: [Experimental Example 3] Experiment on Rhythmic Bladder Contractions in Rats (In Vivo)
Female Sprague-Dawley rat was halothane-anesthetized, and a polyethylene catheter was inserted through urethra lay down straight and fixed. Urine in bladder was excreted through the catheter by gently massaging abdomen of the rat, and then removed. A three-way stopcock was connected to the catheter and a pressure transducer was connected to one side of the three-way stopcock to measure pressure, and a syringe was installed at the other side to inject 37° C. of saline solution. The saline solution was slowly injected until regular bladder contractions occurred repeatedly. When regular bladder contractions occurred stably, test compounds were administered intravenously through the tail vein. Inhibitory effect of the test compounds was evaluated by measuring degree of amplitude reduction of bladder contractions.

[2] = target: T1, human muscarinic M3 receptor (Homo sapiens (Human), UniProt P20309); assay: Binding assay on human muscarinic M3 receptor ([3H]-methyl scopolamine displacement); conditions: membranes overexpressing human M3 receptor, Ki from IC50 by Cheng-Prusoff, read-out: Binding Affinity to M3 Receptor, Ki
Procedure, shortened: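 Displacement of [3H]-methyl scopolamine from membranes overexpressing human M3, in Tris-HCl, 25 °C, 120 min; filter-bound radioactivity counted. Nonspecific binding with 5 μM atropine; Ki from IC50 via Cheng-Prusoff.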

[3] = target: T1, human muscarinic M3 receptor; assay: Antagonism assay on human muscarinic M3 receptor (carbachol-induced intracellular calcium, FLIPR Calcium 5, transfected Cos-7 cells); assay type: cell-based; conditions: functional inhibitory constant; carbachol-induced intracellular calcium in Cos-7 cells transfected with human M3 receptor
Procedure, shortened: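 Ki values converted by Cheng-Prusoff from IC50 against carbachol-evoked calcium rise, measured with FLIPR Calcium 5 in human M3-transfected Cos-7 cells. Compounds added 3 min before carbachol; signal scaled 0% before, 100% after agonist.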

T1 sequence (P20309 whole entry): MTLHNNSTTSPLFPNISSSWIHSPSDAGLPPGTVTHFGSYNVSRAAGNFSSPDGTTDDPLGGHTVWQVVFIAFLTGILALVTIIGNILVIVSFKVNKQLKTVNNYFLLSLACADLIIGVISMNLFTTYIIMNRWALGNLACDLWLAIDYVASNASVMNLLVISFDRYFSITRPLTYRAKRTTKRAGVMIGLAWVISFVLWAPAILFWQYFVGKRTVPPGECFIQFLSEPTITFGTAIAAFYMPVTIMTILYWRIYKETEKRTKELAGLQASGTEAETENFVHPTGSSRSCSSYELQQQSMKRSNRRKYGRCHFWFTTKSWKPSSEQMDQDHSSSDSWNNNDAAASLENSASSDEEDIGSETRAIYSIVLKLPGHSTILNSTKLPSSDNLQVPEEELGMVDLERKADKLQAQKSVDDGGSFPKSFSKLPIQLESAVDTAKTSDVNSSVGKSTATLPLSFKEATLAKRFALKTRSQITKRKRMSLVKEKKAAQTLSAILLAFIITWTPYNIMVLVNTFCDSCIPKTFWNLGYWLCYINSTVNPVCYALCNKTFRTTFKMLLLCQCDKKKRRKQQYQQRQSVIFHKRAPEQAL

| Ki [2] [nM] | Ki [3] [nM] | SMILES | Inhibition of Rhythmic bladder contraction in rats [1] [%] |
| --- | --- | --- | --- |
| 10 | 1.22 | CN1CCCC1CCOC(=O)Nc1ccc(F)cc1-c1cc(F)cc(Cl)c1 (stereo not drawn) [Example 52, 2-(1-methylpyrrolidin-2-yl)ethyl (3′-chloro-5,5′-difluoro-[1,1′-biphenyl]-2-yl)carbamate] | 10.8 ± 0.8 |
| 8.17 | 1.95 | CN1CCCC1CCOC(=O)Nc1ccc(Cl)cc1-c1cccc(Cl)c1 (stereo not drawn) [Example 70, 2-(1-Methylpyrrolidin-2-yl)ethyl(3′,5-dichloro-[1,1′-biphenyl]-2-yl)carbamate] | 9.7 ± 4.1 |
| 6.85 | 1.57 | CN1CC[C@@H](COC(=O)Nc2ccc(Cl)cc2-c2ccc(F)c(Cl)c2)C1 [Example 146, (R)-(1-methylpyrrolidin-3-yl)methyl(3′,5-dichloro-4′-fluoro-[1,1′-biphenyl]-2-yl)carbamate] | 8.2 ± 2.9 |
| 2.93 | 3.41 | CN1CCCC1CCOC(=O)Nc1ccccc1-c1cccc(F)c1 (stereo not drawn) [Example 4, 2-(1-methylpyrrolidin-2-yl)ethyl(3′-fluoro-[1,1′-biphenyl]-2-yl)carbamate] | 22.3 ± 4.9 |
| 6.98 | 3.06 | CN1CCCC1CCOC(=O)Nc1ccc(Cl)cc1-c1ccccc1 (stereo not drawn) [Example 66, 2-(1-Methylpyrrolidin-2-yl)ethyl (5-chloro-[1,1′-biphenyl]-2-yl)carbamate] | 12.0 ± 1.4 |
| 3.29 | 0.29 | CN1CCC[C@H]1COC(=O)Nc1cc(F)c(F)cc1-c1ccc(F)c(Cl)c1 [Example 181, (S)-(1-methylpyrrolidin-2-yl)methyl(3′-chloro-4,4′,5-trifluoro-[1,1′-biphenyl]-2-yl)carbamate] | 18.1 ± 2.6 |
| 6.27 | 0.75 | CN1CC[C@@H](COC(=O)Nc2ccc(F)cc2-c2cc(F)cc(F)c2)C1 [Example 95, (R)-(1-methylpyrrolidin-3-yl)methyl (3′,5,5′-trifluoro-[1,1′-biphenyl]-2-yl)carbamate] | 15.7 ± 0.8 |
| 6.3 | 0.58 | CN1CC[C@@H](COC(=O)Nc2ccc(F)cc2-c2cccc(F)c2)C1 [Example 194, (R)-(1-methylpyrrolidin-3-yl)methyl(3′,5-difluoro-[1,1′-biphenyl]-2-yl)carbamate] | 24.6 ± 2.6 |
| 4.84 | 4.75 | CN1CCCC1CCOC(=O)Nc1ccc(Cl)cc1-c1ccc(F)c(Cl)c1 (stereo not drawn) [Example 73, 2-(1-Methylpyrrolidin-2-yl)ethyl(3′,5-dichloro-4′-fluoro-[1,1′-biphenyl]-2-yl)carbamate] | 10.0 ± 1.0 |
| 8.12 | 2.86 | CN1CC[C@H](COC(=O)Nc2ccc(F)cc2-c2ccc(F)cc2)C1 [Example 124, (S)-(1-methylpyrrolidin-3-yl)methyl(4′,5-difluoro-[1,1′-biphenyl]-2-yl)carbamate] | 21.2 ± 0.7 |
| 3.79 | 2.39 | Cc1cccc(-c2cc(F)ccc2NC(=O)OCCC2CCCN2C)c1 (stereo not drawn) [Example 22, 2-(1-methylpyrrolidin-2-yl)ethyl(5-fluoro-3′-methyl-[1,1′-biphenyl]-2-yl)carbamate] | 16.7 ± 1.7 |

| SMILES | Ki [2] [nM] | Ki [3] [nM] | Inhibition of Rhythmic bladder contraction in rats [1] [%] |
| --- | --- | --- | --- |
| CN1CC[C@H](COC(=O)Nc2ccc(F)cc2-c2ccc(Cl)c(Cl)c2)C1 [Example 128, (S)-(1-methylpyrrolidin-3-yl)methyl(3′,4′-dichloro-5-fluoro-[1,1′-biphenyl]-2-yl)carbamate] | 3.41 | 1.2 | 15.1 ± 3.4 |
| CN1CC[C@@H](COC(=O)Nc2ccc(F)cc2-c2cc(F)cc(Cl)c2)C1 [Example 142, (R)-(1-methylpyrrolidin-3-yl)methyl(3′-chloro-5,5′-difluoro-[1,1′-biphenyl]-2-yl)carbamate] | 4.88 | 1.04 | 15.1 ± 3.4 |
